Here are results for 17 molecules from patent publication US10201546B2, “Quinolinyl modulators of RORγt” (Janssen Pharmaceutica NV, priority 2013, dated 2019).

Where a name gives a salt, the structure may show the parent alone. Read-outs that look alike come from different tables or passages of the source.

The subject of assay [1] is IL-17 production by CD4+ T cells under conditions which favor Th17 differentiation. The assay is described as follows: Human Th17 assay (IL-17 production by CD4 T cells). Type of assay: cell-based.
Method: The human Th17 assay tests the effect of RORγt modulatory compounds on IL-17 production by CD4 T cells under conditions which favor Th17 differentiation. Total CD4^+ T cells were isolated from the peripheral blood mononuclear cells (PBMC) of healthy donors using a CD4^+ T cell isolation kit II, following the manufacturer's instructions (Miltenyi Biotec). […] 50 μL of compound at titrated concentrations in DMSO were added into each well at final DMSO concentration at 0.2%. Cells were incubated for 1 hour, then 50 μL of Th17 cell differentiation medium was added to each well. The final concentrations of antibodies and cytokines (R&D Systems) in differentiation medium were: 3×10^6/mL anti-CD3/CD28 beads (prepared using human T cell activation/expansion kit, Miltenyi Biotec), 10 μg/mL anti-IL4, 10 μg/mL anti-IFNγ, 10 ng/mL IL113, 10 ng/mL IL23, 50 ng/mL IL6, 3 ng/mL TGFβ and 20 U/mL IL2. Cells were cultured at 37° C. and 5% CO2 for 3 days. Supernatants were collected and the accumulated IL-17 in culture was measured by using MULTI-SPOT® Cytokine Plate following manufacture's instruction (Meso Scale Discovery). The plate was read using Sector Imager 6000, and IL-17 concentration was extrapolated from the standard curve. The IC50s were determined by GraphPad.
In assay [2] the target is human RORγt ligand binding domain (RORγt LBD) (Homo sapiens (Human), UniProt P51449). The assay is described as follows: RORγt ThermoFluor assay (thermal shift, binding affinity Kd). The settings on record: read-out: ThermoFluor Assay, Kd.
human RORγt ligand binding domain (RORγt LBD), sequence (P51449 other isoform, or with tags, fused parts or gaps): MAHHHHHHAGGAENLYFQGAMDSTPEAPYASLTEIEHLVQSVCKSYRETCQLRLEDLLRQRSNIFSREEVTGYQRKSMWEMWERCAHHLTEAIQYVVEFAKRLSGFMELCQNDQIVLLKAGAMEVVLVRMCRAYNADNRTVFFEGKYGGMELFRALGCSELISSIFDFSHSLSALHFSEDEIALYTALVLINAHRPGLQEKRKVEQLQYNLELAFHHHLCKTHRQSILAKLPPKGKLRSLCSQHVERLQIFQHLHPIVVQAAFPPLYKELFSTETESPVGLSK
Assay [3] deals with human RORγt LBD fused to the DNA binding domain of the GAL4 protein (Homo sapiens (Human), UniProt P51449). The assay is described as follows: RORγt (LBD) reporter assay in HEK293T cells. On the set-up: RORγt (LBD) Reporter Assay, % inhibition: dose or concentration left out as unconfirmed. Type of assay: cell-based.
human RORγt LBD fused to the DNA binding domain of the GAL4 protein, sequence (P51449 258-518): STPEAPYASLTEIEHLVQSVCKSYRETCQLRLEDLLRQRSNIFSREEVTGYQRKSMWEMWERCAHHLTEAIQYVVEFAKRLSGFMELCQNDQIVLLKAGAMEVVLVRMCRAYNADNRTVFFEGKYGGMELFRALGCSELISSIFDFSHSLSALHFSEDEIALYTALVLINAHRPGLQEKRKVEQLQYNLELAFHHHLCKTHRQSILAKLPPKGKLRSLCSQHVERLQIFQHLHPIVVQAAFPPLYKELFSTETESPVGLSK
From the text: A reporter assay was used to test functional activity of RORγt modulatory compounds on transcriptional activation driven by the RORγt LBD. Cells used in the assay were co-transfected with two constructs. The first construct, pBIND-RORγt LBD, contained the wild type human RORγt LBD fused to the DNA binding domain of the GAL4 protein. The second construct, pGL4.31 (Promega Cat no. C935A), contained multiple GAL4 responsive DNA elements upstream of firefly luciferase.
The pBIND vector contains the GAL4 DNA Binding Domain (GAL4 DBD) and the renilla luciferase gene under control of the SV40 promoter. Renilla luciferase expression serves as a control for transfection efficiency and cell viability.
The reporter assay was performed by transiently transfecting HEK293T cells with 5 μg of pBIND-RORγt LBD or pBIND-RORγt LBD-AF2 and 5 μg pGL4.31 (Promega Cat no. C935A) using Fugene 6 (Invitrogen Cat no. E2691) at a 1:6 ratio of DNA:Fugene 6 in a T-75 flask in which cells were at least 80% confluent. Twenty four hours after bulk transfection, cells were plated into 96-well plates at 50,000 cells/well in phenol-red free DMEM containing 5% Lipid Reduced FCS and Pen/Strep. Six hours after plating, cells were treated with compounds for 24 hours. Media was removed and cells were lysed with 50 μL 1× Glo Lysis Buffer (Promega). Dual Glo Luciferase Reagent (50 μL/well) was then added and firefly luciferase luminescence was read on an Envision after a ten minute incubation. Finally, Stop and Glo reagent (50 L/well) was added and renilla luciferase luminescence was read on an Envision after a ten minute incubation. To calculate the effect of compounds on RORγt activity, the ratio of firefly to renilla luciferase was determined and plotted against compound concentration. Agonist compounds increase RORγt-driven luciferase expression, and antagonist or inverse agonist compounds decrease luciferase expression.

The molecule `COc1nc2ccc([C@@](O)(c3ccccc3)C3CCN(C(C)=O)CC3)cc2c(Cl)c1CC1CCOCC1` [Example 4b] yielded an IC50 in assay [1] of over 6000 nM. The Kd in assay [2] was found to be 9 nM. Further, in assay [3], the IC50 was over 6 µM and the “RORγt (LBD) Reporter Assay, % inhibition @ 6 μM” value (“RORγt … % inhibition @ 6 μM” for short) was 42%.

`COc1nc2ccc(C(O)(c3cnnn3C)c3cnc(C)n3C)cc2c(Cl)c1CN1CCC(C(F)(F)F)CC1` (single isomer, unassigned) [Example 106c, (4-Chloro-2-methoxy-3-((4-(trifluoromethyl)piperidin-1-yl)methyl)quinolin-6-yl)(1,2-dimethyl-1H-imidazol-5-yl)(1-methyl-1H-1,2,3-triazol-5-yl)methanol]: the IC50 in assay [1] turned out to be 1.4 nM. The “RORγt … % inhibition @ 6 μM” value in assay [3] was determined as 100%.

In assay [1] (Homo sapiens, CD4+ T), `COc1nc2ccc(C(O)(c3ccnc(C(F)(F)F)c3)c3cncn3C)cc2c(Cl)c1CN1CCC(C(F)(F)F)CC1` (single isomer, unassigned) [Example 100c, (4-Chloro-2-methoxy-3-((4-(trifluoromethyl)piperidin-1-yl)methyl)quinolin-6-yl)(1-methyl-1H-imidazol-5-yl)(2-(trifluoromethyl)pyridin-4-yl)methanol] had an IC50 of 7.6 nM. For the same molecule, the “RORγt … % inhibition @ 6 μM” value in assay [3] was found to be 100%.

On to `COc1nc2ccc(C(O)(c3ccc(C(F)(F)F)nc3)c3cncn3C)cc2c(Cl)c1OCC1CC1` (single isomer, unassigned) [Example 88c, [4-Chloro-3-(cyclopropylmethoxy)-2-methoxyquinolin-6-yl](1-methyl-1H-imidazol-5-yl)[6-(trifluoromethyl)pyridin-3-yl]methanol], for which it took 310 nM to reach half-maximal inhibition in assay [1] (Homo sapiens) (IC50).

On to `COc1nc2ccc(C(O)(c3ccc(Cl)cc3)c3cncn3C)cc2c(Cl)c1OCC(F)(F)F` (single isomer, unassigned) [Example 86c, [4-Chloro-2-methoxy-3-(2,2,2-trifluoroethoxy)quinolin-6-yl](4-chlorophenyl)(1-methyl-1H-imidazol-5-yl)methanol], for which the IC50 in assay [1] (Homo sapiens) was 21 nM.

The molecule `CC(C)c1c(Cl)nc2ccc(C(O)(c3cccnc3)c3cccc(Cl)c3)cc2c1Cl` (centres unmarked) [Example 19, (3-Chlorophenyl) [2,4-dichloro-3-(1-methylethyl)quinolin-6-yl]pyridin-3-ylmethanol.TFA] yielded an IC50 in assay [1] (Homo sapiens) of 1300 nM.

Turning to `COc1nc2ccc(C(O)(c3cnc(C)n3C)c3cnc(C)n3C)cc2c(Cl)c1CN1CCC(C(F)(F)F)CC1` [Example 111, (4-Chloro-2-methoxy-3-((4-(trifluoromethyl)piperidin-1-yl)methyl)quinolin-6-yl)bis(1,2-dimethyl-1H-imidazol-5-yl)methanol], in assay [1] (Homo sapiens), the IC50 amounted to 17 nM.

On to `COc1nc2ccc(C(O)(c3ccc(Cl)cc3)c3cncn3C)cc2c(Cl)c1CN1CCC(n2cccn2)CC1` (single isomer, unassigned) [Example 101c, (3-((4-(1H-Pyrazol-1-yl)piperidin-1-yl)methyl)-4-chloro-2-methoxyquinolin-6-yl)(4-chlorophenyl)(1-methyl-1H-imidazol-5-yl)methanol], for which the IC50 in assay [1] (Homo sapiens) stood at 360 nM.

On to `COc1nc2ccc(C(O)(c3ccccc3)C3CCN(C(C)=O)CC3)cc2c(Cl)c1C1CCOCC1` (single isomer, unassigned) [Example 7b, 1-(4-((4-Chloro-2-methoxy-3-(tetrahydro-2H-pyran-4-yl)quinolin-6-yl)(hydroxy)(phenyl)methyl)piperidin-1-yl)ethanone], for which the IC50 in assay [1] (Homo sapiens) was found to be 210 nM.

`CC(C)(C)c1c(/C=C/c2ccccc2)nc2ccc(C(O)(c3cccnc3)c3cccc(Cl)c3)cc2c1Cl` (centres unmarked) [Example 27, {3-tert-Butyl-4-chloro-2-[(E)-2-phenylethenyl]quinolin-6-yl}(3-chlorophenyl)pyridin-3-ylmethanol.TFA] yielded an IC50 in assay [1] (Homo sapiens) of about 3000 nM.

Molecule `COc1nc2ccc(C(O)(c3ccc(C)nc3C)c3cnnn3C)cc2c(Cl)c1CC(F)(F)F` (single isomer, unassigned) [Example 143c, [4-Chloro-2-methoxy-3-(2,2,2-trifluoroethyl)quinolin-6-yl](2,6-dimethylpyridin-3-yl)(1-methyl-1H-1,2,3-triazol-5-yl)methanol] had an IC50 in assay [1] (Homo sapiens, CD4+ T) of 370 nM. For the same molecule, the “RORγt (LBD) Reporter Assay, % inhibition” value in assay [3] is listed as 100%.

Consider `COc1nc2ccc(C(O)(c3cnc(C)n3C)C3CN(C(C)=O)C3)cc2c(Cl)c1CN1CCC(C(F)(F)F)CC1` (single isomer, unassigned) [Example 124c, 1-(3-((4-Chloro-2-methoxy-3-((4-(trifluoromethyl)piperidin-1-yl)methyl)quinolin-6-yl)(1,2-dimethyl-1H-imidazol-5-yl)(hydroxy)methyl)azetidin-1-yl)ethanone], for which inhibition in assay [1] was half-maximal at 35 nM (IC50).

`Cn1cncc1C(O)(c1ccc(C(F)(F)F)nc1)c1ccc2nc(N3CCC3)c(OCC3CC3)c(Cl)c2c1` (single isomer, unassigned) [Example 87c, [2-Azetidin-1-yl-4-chloro-3-(cyclopropylmethoxy)quinolin-6-yl](1-methyl-1H-imidazol-5-yl)[6-(trifluoromethyl)pyridin-3-yl]methanol]: in assay [1] (Homo sapiens), the IC50 worked out at 120 nM.

`Cn1cncc1C(O)(c1ccc(Cl)cc1)c1ccc2nc(N3CCC3)c(OCC(F)(F)F)c(Cl)c2c1` (single isomer, unassigned) [Example 90c, [2-Azetidin-1-yl-4-chloro-3-(2,2,2-trifluoroethoxy)quinolin-6-yl](4-chlorophenyl)(1-methyl-1H-imidazol-5-yl)methanol] registered an IC50 in assay [1] (Homo sapiens) of 200 nM.

The molecule `COc1nc2ccc(C(O)(c3ccccc3)C3CCN(C(C)=O)CC3)cc2c(Cl)c1OC(C)C` (single isomer, unassigned) [Example 84b, (1-Acetylpiperidin-4-yl)[4-chloro-2-methoxy-3-(1-methylethoxy)quinolin-6-yl]phenylmethanol] displayed an IC50 in assay [1] (Homo sapiens) of 5.4 nM.

Molecule `Cn1cncc1C(O)(c1ccc(C(F)(F)F)nc1)c1ccc2nc(N3CCC3)c(OCC(F)(F)F)c(Cl)c2c1` (single isomer, unassigned) [Example 89c, [2-Azetidin-1-yl-4-chloro-3-(2,2,2-trifluoroethoxy)quinolin-6-yl](1-methyl-1H-imidazol-5-yl)[6-(trifluoromethyl)pyridin-3-yl]methanol] came in with an IC50 in assay [1] (Homo sapiens) of 79 nM.

`CCOC(=O)c1c(C(F)(F)F)nc2ccc(C(O)(c3cccnc3)c3cccnc3)cc2c1C(F)(F)F` [Example 8, Ethyl 6-(hydroxydi(pyridin-3-yl)methyl)-2,4-bis(trifluoromethyl)quinoline-3-carboxylate.TFA] showed an IC50 in assay [1] (Homo sapiens) of 200 nM.
